Test systems include M14 melanoma; A498 renal; 786-0 renal; NCI/ADR-RES ovarian; MDA-N; SK-MEL-28 melanoma; K-562 leukemia; U251 CNS; TK-10 renal; SF-539 CNS; CCRF-CEM leukemia.
What all share (assay): NCI-60 cell line screen, 48 h

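Interpolation was linear, between the two tested concentrations surrounding the appropriate level; five concentrations were tested over 48 hours in 96-well plates. TGI: concentration producing complete growth inhibition.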

Regarding `CCCNC(=O)N1CC(CN2CCN(c3ccccc3)CC2)O/C1=N/C(=O)Nc1ccccc1` (stereo not given), the TGI in the experiment on M14 melanoma, in the experiment with A498 renal, in the experiment with 786-0 renal, in the experiment with NCI/ADR-RES ovarian, in the experiment with MDA-N and with SK-MEL-28 melanoma was more than 100 µM in each case. Also, the TGI in the experiment with K-562 leukemia, in the experiment on U251 CNS and with TK-10 renal was more than 100 µM in each case.

Regarding `Cc1csc(NNC(=O)Nc2ccccc2)n1`, the TGI in the experiment with M14 melanoma, with A498 renal, in the experiment on SF-539 CNS, with 786-0 renal, with CCRF-CEM leukemia and with NCI/ADR-RES ovarian was more than 100 µM each time. Also, the TGI in the experiment with MDA-N, in the experiment with SK-MEL-28 melanoma, in the experiment with K-562 leukemia and with U251 CNS was more than 100 µM throughout.

With `COc1cc(C2c3c(ccc4ccccc34)C(=O)C3CCC(=O)N32)cc(OC)c1O` (stereo not given), the TGI with M14 melanoma, in the experiment with A498 renal, in the experiment on SF-539 CNS, with 786-0 renal, in the experiment on CCRF-CEM leukemia and with NCI/ADR-RES ovarian was more than 25 µM each time. The TGI with MDA-N, in the experiment with SK-MEL-28 melanoma, with K-562 leukemia and with U251 CNS was more than 25 µM in each case.

On to `CCOC(=O)c1cc(C2CCN(Cc3ccccc3)C2=S)c(C(=O)C=[N+]=[N-])[nH]1` (stereo not given), for which the TGI was 48.7 µM in the experiment with M14 melanoma; more than 100 µM in the experiment with A498 renal; 85.4 µM in the experiment with 786-0 renal; more than 100 µM in the experiment with CCRF-CEM leukemia; 79.6 µM in the experiment on NCI/ADR-RES ovarian; 49.4 µM with MDA-N. Moreover, the TGI with SK-MEL-28 melanoma was 51.5 µM; in the experiment on K-562 leukemia, more than 100 µM; with U251 CNS, more than 100 µM; with TK-10 renal, more than 100 µM.

`CCOC(=O)C(CCc1ncnc2c1ncn2Cc1ccccc1)(CCc1ncnc2c1ncn2Cc1ccccc1)C(=O)OCC`: the TGI in the experiment with M14 melanoma is more than 100 µM; in the experiment with A498 renal it was more than 100 µM; with SF-539 CNS, 94.6 µM; in the experiment with 786-0 renal it was more than 100 µM; in the experiment with NCI/ADR-RES ovarian, more than 100 µM; in the experiment with MDA-N it was more than 100 µM. The TGI in the experiment on SK-MEL-28 melanoma, in the experiment with K-562 leukemia, with U251 CNS and with TK-10 renal was more than 100 µM throughout.

Consider `COC1/C=C/C(C)C(C(C)C(OC)C(C)CCC(=O)C(C)C(CC(=O)O)OC)OC(=O)/C=C/C=C(\C)CC(OC)CC2=CC(=O)O[C@H](C2)C(C)C(OC)CC(OC)/C=C/C(C)C(OC)C1` (stereo not given in full), for which the TGI was more than 4.35 µM in the experiment with M14 melanoma; 2.17 µM in the experiment with A498 renal; more than 4.35 µM with 786-0 renal; more than 4.35 µM in the experiment with CCRF-CEM leukemia; more than 4.35 µM in the experiment on NCI/ADR-RES ovarian; more than 4.35 µM in the experiment on MDA-N. Moreover, the TGI with SK-MEL-28 melanoma was 1.25 µM; in the experiment with K-562 leukemia it was more than 4.35 µM; in the experiment with U251 CNS, more than 4.35 µM; in the experiment on TK-10 renal, 1.66 µM.

For `Cn1c(N=P(c2ccccc2)(c2ccccc2)c2ccccc2)c([N+](=O)[O-])c(=O)n(C)c1=O`, the TGI is more than 100 µM in the experiment with M14 melanoma; more than 100 µM with A498 renal; more than 100 µM in the experiment with SF-539 CNS; more than 100 µM with 786-0 renal; 76.6 µM in the experiment with CCRF-CEM leukemia; more than 100 µM in the experiment on NCI/ADR-RES ovarian. Moreover, the TGI with MDA-N, in the experiment with K-562 leukemia, in the experiment with U251 CNS and in the experiment on TK-10 renal was more than 100 µM each time.

On to `COc1ccc(/C(=N\Nc2ccccn2)c2ccccn2)cc1`, for which the TGI in the experiment on M14 melanoma was 3.76 µM; in the experiment with A498 renal it was more than 100 µM; in the experiment with SF-539 CNS, 6.6 µM; in the experiment on 786-0 renal, 24.5 µM; in the experiment with CCRF-CEM leukemia it was more than 100 µM; with NCI/ADR-RES ovarian, 0.0475 µM. The TGI in the experiment on MDA-N is more than 100 µM; in the experiment with SK-MEL-28 melanoma, more than 53 µM; in the experiment on K-562 leukemia it was more than 100 µM; in the experiment on U251 CNS, 17.1 µM.

With `Cn1c(=O)c(Cl)c(N=[N+]=[N-])c2ccccc21`, the TGI with A498 renal, in the experiment on SF-539 CNS, in the experiment on CCRF-CEM leukemia, with NCI/ADR-RES ovarian, with MDA-N and with SK-MEL-28 melanoma was more than 100 µM each time. Moreover, the TGI in the experiment with K-562 leukemia, with U251 CNS and in the experiment on TK-10 renal was more than 100 µM each time.

For the compound `Cc1ccc(N2C(N)=C(C#N)C(C#N)(C#N)C2c2ccccc2)cc1` (stereo not given), the TGI stood at 30.5 µM in the experiment with M14 melanoma; 35.7 µM in the experiment on A498 renal; 29.2 µM in the experiment with SF-539 CNS; 30.3 µM in the experiment with 786-0 renal; 7.33 µM with CCRF-CEM leukemia; 36.1 µM in the experiment with NCI/ADR-RES ovarian. Moreover, the TGI in the experiment on MDA-N was found to be 12 µM; in the experiment with SK-MEL-28 melanoma it was 22.3 µM; with U251 CNS, 31.6 µM; with TK-10 renal, 28 µM.

Take `O=C1c2ccccc2C(=O)N1CC(CN1C(=O)c2ccccc2C1=O)(C(=O)OCc1ccccc1)C(=O)OCc1ccccc1`: the TGI with M14 melanoma, with A498 renal, in the experiment on CCRF-CEM leukemia, in the experiment on NCI/ADR-RES ovarian, in the experiment on MDA-N and in the experiment on SK-MEL-28 melanoma was more than 100 µM throughout. In the experiment with U251 CNS, the TGI is more than 100 µM.

For the compound `Clc1c2ccccc2nc2c1[nH]c1ccccc12`, the TGI was more than 100 µM with M14 melanoma; more than 100 µM in the experiment on A498 renal; more than 100 µM in the experiment with SF-539 CNS; more than 100 µM in the experiment on 786-0 renal; more than 100 µM in the experiment with CCRF-CEM leukemia; 89.7 µM with NCI/ADR-RES ovarian. For the same compound, the TGI in the experiment on MDA-N was 16.9 µM; in the experiment with SK-MEL-28 melanoma it was more than 100 µM; in the experiment with U251 CNS, more than 100 µM; in the experiment on TK-10 renal, more than 100 µM.

Consider `O=C(C/C=C/c1ccccc1)c1ccccc1`, for which the TGI in the experiment with M14 melanoma is 32.2 µM; in the experiment on A498 renal it was 36 µM; in the experiment with SF-539 CNS, 56.6 µM; in the experiment with 786-0 renal it was 48.8 µM; with CCRF-CEM leukemia, 64.8 µM; in the experiment on NCI/ADR-RES ovarian, 33.7 µM. The TGI was 50.9 µM in the experiment with MDA-N, 53.6 µM in the experiment on SK-MEL-28 melanoma, 29.9 µM in the experiment on U251 CNS and 65.6 µM in the experiment with TK-10 renal.

The values are drawn from PubChem BioAssay (NCI).
